Consider 85 compounds from the Kinase Knowledgebase extract (Sharma et al. 2016).

Broadly, the Ki is the equilibrium dissociation constant of an inhibitor or competing ligand from its target. Low readings indicate a stronger hold on the target, high ones a looser hold on the target.

Sequence of PIK3CG (human) (P48736 whole entry, looked up): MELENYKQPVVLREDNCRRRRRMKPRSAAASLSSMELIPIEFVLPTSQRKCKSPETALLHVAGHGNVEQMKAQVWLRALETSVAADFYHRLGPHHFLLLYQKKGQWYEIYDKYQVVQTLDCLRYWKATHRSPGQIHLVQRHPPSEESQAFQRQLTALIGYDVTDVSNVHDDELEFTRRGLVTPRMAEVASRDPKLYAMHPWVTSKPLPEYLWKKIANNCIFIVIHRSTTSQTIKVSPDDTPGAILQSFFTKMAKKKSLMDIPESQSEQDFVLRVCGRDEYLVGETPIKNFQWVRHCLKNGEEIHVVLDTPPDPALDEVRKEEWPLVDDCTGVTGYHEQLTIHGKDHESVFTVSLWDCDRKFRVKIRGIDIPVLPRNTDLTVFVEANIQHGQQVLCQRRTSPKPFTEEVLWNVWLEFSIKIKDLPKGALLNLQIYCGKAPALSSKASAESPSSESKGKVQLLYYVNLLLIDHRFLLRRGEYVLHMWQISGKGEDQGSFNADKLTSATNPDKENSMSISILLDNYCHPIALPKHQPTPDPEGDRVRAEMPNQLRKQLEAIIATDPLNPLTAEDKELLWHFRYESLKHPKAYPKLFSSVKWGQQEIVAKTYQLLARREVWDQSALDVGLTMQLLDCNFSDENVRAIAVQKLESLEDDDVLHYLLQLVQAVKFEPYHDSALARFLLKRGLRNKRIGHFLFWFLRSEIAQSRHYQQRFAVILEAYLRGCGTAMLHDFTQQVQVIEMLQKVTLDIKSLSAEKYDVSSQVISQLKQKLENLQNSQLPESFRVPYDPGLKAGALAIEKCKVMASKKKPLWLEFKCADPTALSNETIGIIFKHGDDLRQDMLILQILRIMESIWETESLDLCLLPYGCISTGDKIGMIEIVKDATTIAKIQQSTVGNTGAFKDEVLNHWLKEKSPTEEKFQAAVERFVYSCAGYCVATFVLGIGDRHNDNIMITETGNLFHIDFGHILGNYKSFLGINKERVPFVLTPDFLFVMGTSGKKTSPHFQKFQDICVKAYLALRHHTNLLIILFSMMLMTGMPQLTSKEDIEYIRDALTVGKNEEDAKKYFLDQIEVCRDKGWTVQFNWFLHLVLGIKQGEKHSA

This test concerns the target PIK3CG (human) (UniProt P48736). Nature of the test: Inhibition of PIK3CG Kinase Activity.
In the case of `COc1cc(-c2ccc3c(n2)CN(c2cnn(CC(F)F)c2)C3=O)cnc1OC`, the Ki is below 100 nM.
The value for `CCC1(O)c2nc(-c3cnc(OC)c(OC)c3)cc(C)c2C(=O)N1c1cnn(CC(F)(F)F)c1` (stereo not given) was below 100 nM; that for `CO[C@@H]1c2nc(-c3cncc(OCC(F)F)c3)cc(C)c2C(=O)N1c1cnn(CC(F)(F)F)c1` was below 100 nM.
Compound `COc1ncc(-c2cc(C)c3c(n2)C(C)(C)N(c2cnn(C(C)(C)C#N)c2)C3=O)cc1OCC(F)F` came in with a Ki below 100 nM.
The value for `Cc1cc(-c2cncc(Cl)c2)nc2c1C(=O)N(c1cnn(CC#N)c1)C2` was below 100 nM; that for `COc1cc(-c2ccc3c(c2)CN(c2cccc(C#N)c2)C3=O)cnc1OC` was 100 to 490 nM; that for `COc1cc(-c2ccc3c(n2)C(C)N(c2ccn(C[C@@H](C)O)n2)C3=O)cnc1OC` (stereo not given in full) was below 100 nM.
The value for `COc1cc(-c2ccc3c(n2)CN(c2cnn(Cc4ccc(Cl)nc4)c2)C3=O)cnc1OC` was below 100 nM; that for `COc1cc(-c2ccc3c(c2)CN(c2cnn(CCCO)c2)C3=O)cnc1OC` was 100 to 490 nM.
Compound `COc1cc(-c2cc(C)c3c(n2)CN(c2cnn(C[C@@H](C)O)c2)C3=O)cnc1OC` showed a Ki below 100 nM.
With `CCOc1ncc(-c2ccc3c(c2)CN(c2cnn(CC#N)c2)C3=O)cc1OC` the figure was below 100 nM; with `CCOc1ncc(-c2cc(C)c3c(n2)C2(CC2)N(c2cnn(CC(F)(F)F)c2)C3=O)cc1OC`, below 100 nM; with `COCCOc1ncc(-c2cc(C)c3c(n2)[C@@H](C)N(c2ccn(C)n2)C3=O)cc1OC`, below 100 nM.
With `COc1cc(-c2ccc3c(n2)CN(c2ccc(=O)n(CC(F)(F)F)c2)C3=O)cnc1OC` the figure was below 100 nM; with `COc1cc(-c2ccc3c(n2)CN(c2cnn(C4CC4)c2)C3=O)cnc1OC`, below 100 nM; with `C#CCn1cc(N2Cc3cc(-c4cnc(OC)c(OC)c4)ccc3C2=O)cn1`, below 100 nM.
With `CCO[C@H]1c2nc(-c3cnc(OC)c(OC)c3)cc(C)c2C(=O)N1c1cnn(CC(F)(F)F)c1` the figure was below 100 nM; with `CC[C@@]1(OC)c2nc(-c3cnc(OC)c(OC)c3)cc(C)c2C(=O)N1c1cnn(CC(F)(F)F)c1`, below 100 nM.
Consider `COc1cc(-c2ccc3c(n2)[C@H](C)N(c2ccn(C[C@H](C)O)n2)C3=O)cnc1OC`, for which the Ki is below 100 nM.
With `CNC(=O)c1cc(-c2cc(C)c3c(n2)C(C)(C)N(c2cnn(CC(F)(F)F)c2)C3=O)cnc1OC` the figure was 100 to 490 nM.
The value for `C#CCNC(=O)c1cncc(-c2cc(C)c3c(n2)C(C)(C)N(c2cnn(CC(F)(F)F)c2)C3=O)c1` was below 100 nM; that for `COc1ncc(-c2cc(C)c3c(n2)CN(c2ccn(C4COC4)n2)C3=O)cc1OCC1CC1` was below 100 nM.
With `COc1cncc(-c2cc(C)c3c(n2)CN(c2ccn(CC(F)(F)F)n2)C3=O)c1` the figure was below 100 nM.
`CSc1cncc(-c2cc(C)c3c(n2)CN(c2cnn(CC(F)(F)F)c2)C3=O)c1` displayed a Ki below 100 nM.
The value for `COc1cncc(N2Cc3nc(-c4cnc(OC)c(OC)c4)cc(C)c3C2=O)c1` was below 100 nM.
The value for `COc1cc(-c2ccc3c(n2)C(OC)N(c2cnn(CC(F)(F)F)c2)C3=O)cnc1OC` (stereo not given) was below 100 nM; that for `CCn1ccnc1Cn1cc(N2Cc3nc(-c4cnc(OC)c(OC)c4)ccc3C2=O)cn1` was below 100 nM.
The value for `COc1cc(-c2ccc3c(n2)[C@H](C)N(c2cnn(CC(C)(C)O)c2)C3=O)cnc1OC` was below 100 nM; that for `CCOc1ncc(-c2cc(C)c3c(n2)[C@]2(CCCO2)N(c2ccn(CC)n2)C3=O)cc1OC` was 100 to 490 nM.
In turn, `COc1cncc(-c2cc(C)c3c(n2)C(C)N(c2csc(C)n2)C3=O)c1` (stereo not given) had a Ki below 100 nM.
Turning to `COc1ncc(-c2cc(C)c3c(n2)C(C)(C)N(c2cnn(CC(F)(F)F)c2)C3=O)cc1C(=O)NC(C)C`, the Ki was below 100 nM.
With `COCCOC1c2nc(-c3cnc(OC)c(OC)c3)ccc2C(=O)N1c1cnn(CC(F)(F)F)c1` (stereo not given) the figure was below 100 nM; with `CCn1cc(N2C(=O)c3ccc(-c4cnc(OC)c(OC(F)F)c4)nc3[C@@H]2C)cn1`, below 100 nM.
With `COc1cncc(-c2cc(C)c3c(n2)C(C)(OC)N(c2cnn(CC(F)(F)F)c2)C3=O)c1` (stereo not given) the figure was below 100 nM; with `CCn1ccc(N2Cc3cc(-c4cnc(OC)c(OC)c4)ccc3C2=O)n1`, below 100 nM.
The value for `COc1cc(-c2ccc3c(n2)[C@H](C)N(c2cn[nH]c2)C3=O)cnc1OC` was below 100 nM; that for `CCOc1cncc(-c2cc(C)c3c(n2)[C@](C)(OC)N(c2cnn(CC(F)(F)F)c2)C3=O)c1` was below 100 nM.
As to `Cc1cc(-c2cncc(C(=O)NCC(C)C)c2)nc2c1C(=O)N(c1cnn(CC(F)(F)F)c1)C2(C)C`, the Ki is below 100 nM.
With `COc1cncc(N2Cc3nc(-c4cnc(OC)c(OC)c4)ccc3C2=O)c1` the figure was below 100 nM.
With `COc1ncc(-c2cc(C)c3c(n2)C(C)(C)N(c2cnn(CC(F)(F)F)c2)C3=O)cc1C(=O)N[C@H]1CCOC1` the figure was below 100 nM; with `COc1cc(-c2cc(C)c3c(n2)C(C)(C)N(c2cnn(CC(F)(F)F)c2)C3=O)cnc1OC`, below 100 nM.
The value for `COc1cncc(-c2cc(C)c3c(n2)[C@]2(CCCO2)N(c2cnn(CC(F)(F)F)c2)C3=O)c1` was 100 to 490 nM.
The compound `COc1ncc(-c2cc(C)c3c(n2)C(C)N(c2cnn(CC(F)(F)F)c2)C3=O)cc1C(=O)O` (stereo not given) returned a Ki below 100 nM.
With `Cc1cc(-c2cncc(C(=O)NC3COC3)c2)nc2c1C(=O)N(c1cnn(CC(F)(F)F)c1)C2(C)C` the figure was below 100 nM; with `Cc1cc(-c2cncc(C(=O)N(C)C(C)CO)c2)nc2c1C(=O)N(c1cnn(CC(F)(F)F)c1)C2` (stereo not given), 100 to 490 nM.
The value for `COCCCOc1cc(-c2cc(C)c3c(n2)CN(c2cnn(CC(F)(F)F)c2)C3=O)cnc1OC` was below 100 nM; that for `Cc1cc(-c2cncc(OC(F)F)c2)nc2c1C(=O)N(c1cncc(CC#N)c1)C2C` (stereo not given) was below 100 nM.
In the case of `Cc1cc(-c2cncc(C(F)(F)F)c2)cc2c1C(=O)N(c1cnn(CC(F)(F)F)c1)C2C` (stereo not given), the Ki is below 100 nM.
`Cc1cc(-c2cncc(OCC(F)F)c2)nc2c1C(=O)N(c1cnn(CC(F)(F)F)c1)C2C` (stereo not given) yielded an inhibition constant Ki below 100 nM.
With `COc1cc(-c2cc(C)c3c(n2)CN(c2cnn(CC(F)(F)F)c2)C3=O)ccc1F` the figure was below 100 nM; with `COc1cc(-c2cc(C)c3c(n2)CN(c2cncc(OCCO)c2)C3=O)cnc1OC`, below 100 nM; with `COc1cc(-c2ccc3c(c2)CN(c2cncc(CC#N)c2)C3=O)cnc1OC`, below 100 nM.
For the compound `CCn1cc(N2Cc3nc(-c4cncc(OC)c4)cc(C)c3C2=O)cn1`, the Ki was below 100 nM.
The value for `COc1cc(-c2cc(C)c3c(n2)CN(c2ccn(CC(F)(F)F)n2)C3=O)cnc1OC` was below 100 nM; that for `Cc1cc(-c2cncc(OC(F)F)c2)nc2c1C(=O)N(c1cnn(C[C@H](C)O)c1)C2` was below 100 nM; that for `Cc1cc(-c2cnc(C)c(C(=O)O)c2)nc2c1C(=O)N(c1cnn(CC(F)(F)F)c1)C2(C)C` was below 100 nM.
`Cc1cc(-c2cncc(C(=O)O)c2)nc2c1C(=O)N(c1cnn(CC(F)(F)F)c1)C2` registered a Ki below 100 nM.
With `COc1cc(-c2cc(C)c3c(n2)CN(c2cnn(CC(F)(F)F)c2)C3=O)ccc1Cl` the figure was below 100 nM; with `COc1cc(-c2ccc3c(n2)CN(c2cnn(C4CCOCC4)c2)C3=O)cnc1OC`, below 100 nM.
The value for `CCCCOCCOc1cc(-c2cc(C)c3c(n2)CN(c2cnn(CC(F)(F)F)c2)C3=O)cnc1OC` was below 100 nM.
With `COc1ccc(-c2cc(C)c3c(n2)CN(c2cnn(CC(F)(F)F)c2)C3=O)s1` the figure was below 100 nM; with `COc1ccc(-c2cc(C)c3c(c2)CN(c2cnn(CC(F)(F)F)c2)C3=O)cc1OC`, below 100 nM.
For `COc1ncc(-c2cc(C)c3c(n2)CN(c2cnn(C(C)(C)C#N)c2)C3=O)cc1OC(C)C`, the Ki is below 100 nM.
`COc1cc(-c2ccc3c(n2)CN(c2cncc(C#CCO)c2)C3=O)cnc1OC` yielded a Ki of 100 to 490 nM.
The value for `C=C(F)Cn1cc(N2Cc3nc(-c4cnc(OC)c(OC)c4)ccc3C2=O)cn1` was below 100 nM; that for `COc1cc(-c2ccc3c(n2)C(N2CCOCC2)N(c2cnn(CC(F)(F)F)c2)C3=O)cnc1OC` (stereo not given) was 100 to 490 nM; that for `COc1cc(-c2ccc3c(n2)CN(c2cnn(CCn4nc(C)cc4C)c2)C3=O)cnc1OC` was 100 to 490 nM.
With `COc1cc(-c2ccc3c(n2)C(C)N(c2csc(SC)n2)C3=O)cnc1OC` (stereo not given) the figure was below 100 nM; with `COc1cc(-c2ccc3c(n2)C(C)N(c2cccc(C(C)(C)C#N)n2)C3=O)cnc1OC` (stereo not given), below 100 nM.
Turning to `COc1cc(-c2ccc3c(n2)CN(c2ccc(N4CCC(F)CC4)nc2)C3=O)cnc1OC`, the Ki was below 100 nM.
Consider `COc1cc(-c2cc(C)c3c(n2)CN(c2cc(C)n(CCC4OCCCO4)n2)C3=O)cnc1OC`, for which the Ki was below 100 nM.
The compound `Cc1cc(-c2cncc(C(=O)NC(C)C)c2)nc2c1C(=O)N(c1cnn(CC(F)(F)F)c1)C2C` (stereo not given) showed a Ki below 100 nM.
The value for `COc1cc(-c2ccc3c(n2)CN(c2ccc(=O)n(CC#N)c2)C3=O)cnc1OC` was below 100 nM; that for `CCn1ccc(N2C(=O)c3c(C)cc(-c4cncc(OCC(F)F)c4)nc3[C@H]2C)n1` was below 100 nM.
Compound `COc1cc(-c2cc(C)c3c(n2)C(C)N(c2cnn(C[C@H](C)O)c2)C3=O)cnc1OC` (stereo not given in full) registered a Ki below 100 nM.
The value for `CCOc1cc(-c2cc(C)c3c(n2)CN(c2cnn(CC)c2)C3=O)cnc1OC` was below 100 nM; that for `CCn1ccc(N2Cc3nc(-c4cnc(OC)c(OCC(F)(F)F)c4)cc(C)c3C2=O)n1` was below 100 nM.
The value for `COc1ncc(-c2cc(C)c3c(n2)CN(c2cn[nH]c2)C3=O)cc1OCC1CC1` was below 100 nM; that for `CCNC(=O)Cn1cc(N2Cc3nc(-c4cnc(OC)c(OC)c4)ccc3C2=O)cn1` was below 100 nM.
`CCC1c2nc(-c3cnc(OC)c(OC)c3)ccc2C(=O)N1c1cc(COC)n(CC)n1` (stereo not given): the Ki fell in the range of 100 to 490 nM.
With `COc1ncc(-c2ccc3c(n2)CN(c2cnn(CC#N)c2)C3=O)cn1` the figure was 100 to 490 nM; with `COc1cc(-c2cc(C)c3c(n2)CN(c2cnn(C4CC4)c2)C3=O)cnc1OC`, below 100 nM.
The value for `COc1cc(-c2ccc3c(n2)CN(c2ccon2)C3=O)cnc1O` was 100 to 490 nM; that for `COc1ncc(-c2ccc3c(n2)CN(c2cnn(CC#N)c2)C3=O)c(OC)n1` was 100 to 490 nM.
In turn, `Cc1cc(-c2cnc(C)c(O)c2)nc2c1C(=O)N(c1cnn(CC(F)(F)F)c1)C2(C)C` gave a Ki below 100 nM.
